In publication PMC8149590, “Biochemical Characterization of a Novel Bacterial Laccase and Improvement of Its Efficiency by Directed Evolution on Dye Degradation” (Frontiers in Microbiology, 2021):

Tested on: T1, rlac1338
T1 construct: gene lac1338; 1,338 bp gene (about 445 residues), codon-optimised, in pET-32a(+), E. coli BL21(DE3); His-tag fusion (18 kD vector tag), ~68 kD by SDS-PAGE
Test: initial rates by OD405, Lineweaver-Burk
Format: biochemical, uncultured bacterium
Conditions: ± sign lost in table text
Excerpt: initial rates by OD405, Lineweaver-Burk on rlac1338

[1] = mutant lac2-9, optimal pH 6.5 and 60°C, printed base change T698A falls in codon 233, not 232

How did the Km [1] turn out when `Oc1cccc2ccccc12` [1-naphthol] was run?
The Km was 6040 µM.

And the Km (optimal pH 6.0 and 55°C)?
The Km was 5600 µM.

With `COc1cccc(OC)c1O` [2,6-DMP] as the compound, how does the Km [1] read?
The Km was 560 ± 3.7 µM.

What about the Km (optimal pH 6.0 and 55°C) of the same compound?
Its Km is 654 ± 2.1 µM.

How did the Km [1] turn out when `CCn1c(=NN=c2sc3cc(S(=O)(=O)O)ccc3n2CC)sc2cc(S(=O)(=O)O)ccc21` [ABTS, 2,2-azide-bis (3-ethylbenzothiazole-6-sulfonic acid)] was run?
The Km was 76 ± 1.8 µM.

What about the Km (optimal pH 6.0 and 55°C) of the same compound?
The Km was 210 ± 3.3 µM.

With `Oc1ccccc1O` [Catecho] as the compound, how does the Km [1] read?
Its Km is 570 ± 2.9 µM.

And the Km (optimal pH 6.0 and 55°C)?
Its Km is 507 ± 2.5 µM.

Which results are given for `COc1ccccc1O` [Guaiacol]?
Km [1]: 4300 µM; Km (optimal pH 6.0 and 55°C): 4900 µM
